The values below come from the NIST ThermoML archive (doi:10.1016/j.jct.2017.12.002).

For series [1] the following is noted: 101.33 kPa, Liquid, Vibrating tube method.
A short description of series [2]: refractive index (Na D-line) (dimensionless). Particulars: 101.33 kPa, Liquid, Standard Abbe refractometry.

Numbers after ± are expanded uncertainties.

Take `C=CCCCC` [hex-1-ene]: the mass density was 673.227 ± 0.17 kg/m3 in series [1] (293.15 K); 670.871 ± 0.17 kg/m3 in series [1] (295.15 K); 668.986 ± 0.17 kg/m3 in series [1] (297.15 K); 668.033 ± 0.17 kg/m3 in series [1] (298.15 K); 664.998 ± 0.17 kg/m3 in series [1] (301.35 K). Moreover, the refractive index came out at 1.38796 ± 0.00041 in series [2] (293.15 K) and 1.3851 ± 0.00041 in series [2] (298.15 K).

Take `CCC(C)CC` [3-methylpentane]: the mass density in series [1] (293.15 K) was 664.225 ± 0.17 kg/m3; in series [1] (295.15 K), 662.39 ± 0.18 kg/m3; in series [1] (297.15 K), 660.589 ± 0.17 kg/m3; in series [1] (298.15 K), 659.736 ± 0.18 kg/m3; in series [1] (298.6 K), 659.308 ± 0.18 kg/m3. The refractive index in series [2] (293.15 K) was 1.37654 ± 0.00041; in series [2] (298.15 K), 1.37387 ± 0.00041.
